The text below walks through data of patent US6656714B2, “Nucleic acids and proteins of a rat ganglioside GM1-specific α1→2 fucosyltransferase and uses thereof” (Northwest Hospital, priority 1999, dated 2003).

One assay concerns α1→2FucT. The experiment in a line: α1→2FucT enzyme activity in liver of AAF-fed rats. It is filed as in vivo. As to conditions: AAF-fed rat liver sample; none detected in normal liver.
Assay [1] deals with T1, catalytic domain of rat hepatoma H35 cell α1→2FucT (Rattus norvegicus, UniProt Q10984).
T1 construct: made in house; host or cells: COS-7 cells (secreted fusion protein, captured on IgG-agarose)
T1 sequence (Q10984 28-380 isoform Q10984-2): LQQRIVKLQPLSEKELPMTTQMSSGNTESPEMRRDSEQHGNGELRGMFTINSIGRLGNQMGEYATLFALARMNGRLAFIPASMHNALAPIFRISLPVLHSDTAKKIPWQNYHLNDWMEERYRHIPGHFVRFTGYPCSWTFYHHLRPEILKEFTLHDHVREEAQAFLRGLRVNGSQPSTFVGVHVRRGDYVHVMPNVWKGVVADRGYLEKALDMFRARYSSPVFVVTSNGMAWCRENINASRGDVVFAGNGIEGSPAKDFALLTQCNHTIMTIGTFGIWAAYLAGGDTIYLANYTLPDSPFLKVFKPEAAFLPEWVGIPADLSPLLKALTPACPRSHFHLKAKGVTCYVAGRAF
Description: α1→2Fucosyltransferase assay, pPROTA-expressed catalytic domain on IgG-agarose beads, transfer of [14C]fucose to glycolipid acceptors (TLC). The class given is biochemical. Conditions: 30 μg acceptor, 2 h at 37° C., 250 μg phosphatidylglycerol, GDP-[14C]fucose. On the procedure: For example, as illustrated in Section 6.3.2, infra, the activity of α1→2fucosyltransferase coupled to the IgG-binding domain of Protein A can be determined in reaction mixtures containing 2.5 μmol of HEPES buffer, pH7.2, 30 μg of GM1. ganglioside or nLc4, 250 μg phosphatidylglycerol, 1 μmol of MnCl2, 0.5 μmol of CDP-choline, 15 nmol of GDP-[^14C]fucose (15,000 cpm/nmol), and bound to IgG-agarose beads in a total volume of 0.1 ml. The reaction mixtures are incubated for 2 h at 37° C., terminated by the addition of 0.1 ml of CHCl3:CH3OH (2:1), streaked onto 4-cm-wide strips of Whatman 3 paper and developed with water overnight. The papers are dried and the labeled product extracted from the origins with 2- to 5-ml washes of CHCl3:CH3OH:H2O (10:5:1). The combined eluates are concentrated to dryness by an N2 stream and dissolved in 20 μl of CHCl3:CH3OH (2:1). A 10-μl aliquot of each is spotted onto a HP-TLC plate (Merck)and developed in a solvent system composed of CHCl3:CH3OH:H2O (60:40:9), 0.02% CaCl2.2H2O. […]
α1→2Fucosyltransferase activity was determined in reaction mixtures containing 2.5 μmol of HEPES buffer, pH7.2, 30 μg of GM1 ganglioside or nLc4, 250 μg phosphatidylglycerol, 1 μmol of MnCl2, 0.5 μmol of CDP-choline, 15 nmol of GDP-[^14C]fucose (15,000 cpm/nmol), and pPROTA-expressed enzyme bound to IgG-agarose beads in a total volume of 0.1 ml. […]

Assay [2] has as its target T2, full length rat hepatoma α1→2FucT (Rattus norvegicus, UniProt Q10984).
T2 construct: Full length α1→2FucT cDNA was then cloned into pcDNA 3 vector; expressed in transfected cells; host or cells: COS-7 cells, transient transfection, sonicated homogenate
T2 sequence (Q10984 1-380 isoform Q10984-2): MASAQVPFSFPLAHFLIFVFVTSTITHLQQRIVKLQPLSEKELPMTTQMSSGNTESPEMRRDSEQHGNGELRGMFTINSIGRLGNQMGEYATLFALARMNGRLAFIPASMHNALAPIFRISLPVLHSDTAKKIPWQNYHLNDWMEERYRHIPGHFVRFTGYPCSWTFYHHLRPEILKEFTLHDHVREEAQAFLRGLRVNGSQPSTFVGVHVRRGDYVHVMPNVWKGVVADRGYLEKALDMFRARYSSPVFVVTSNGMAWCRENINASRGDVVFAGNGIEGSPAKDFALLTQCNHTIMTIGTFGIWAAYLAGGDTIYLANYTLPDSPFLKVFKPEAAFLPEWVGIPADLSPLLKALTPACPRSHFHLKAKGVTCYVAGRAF
Description: Enzyme assay of expressed recombinant full length α1→2FucT in homogenates of transfected COS-7 cells, transfer of [14C]fucose to GM1 (TLC). It is filed as biochemical. Conditions: for transfer to GM1 in the presence of additive, compared with no detergent or phospholipid: CHAPSO 100 μg, phosphatidylglycerol 250 μg. The source says:
Expression of full length α1→2FucT cDNA in transfected cells results in membrane-bound enzyme. COS-7 cells were transiently transfected by the DEAE-dextran method (Ausubel, F. M., et al., Current Protocols in Molecular Biology, Wiley, N.Y.) with either FL-RFT-pcDNA3 or FL-RFT(−)-pcDNA3. Four to five days later, the cells were harvested, sonicated in HEPES, glycerol, DTE buffer and assayed for enzyme activity as described previously (Sherwood, A. L., et al., 1998, Arch. Biochem. Biophys. 355:215-221).

The target in assay [3] is T3, recombinant rat α1→2fucosyltransferase (Rattus norvegicus, UniProt Q10984).
T3 construct: Full length α1→2FucT cDNA was then cloned into pcDNA 3 vector; expressed in transfected cells; host or cells: COS-7 cells, transient transfection, sonicated homogenate
T3 sequence (Q10984 1-380 isoform Q10984-2): T2 sequence (Q10984 1-380 isoform Q10984-2)
Description: Preparative in vitro biosynthesis of fucosyl-GM1 with homogenate of COS-7 cells expressing rat α1→2fucosyltransferase (HPTLC). The class given is biochemical. As to conditions: 0.5 mg GM1, 2 mg crude cell homogenate, after 24 to 48 hours. How it is done: Preparative biosynthesis of fucosyl-GM1 was conducted in reaction mixtures composed of 25 μmol of HEPES buffer, pH 7.2, 10 μmol of MnCl2, 500 μg CHAPSO, 0.5 mg GM1, and 2 mg crude cell homogenate of COS-7 cells transiently transfected with plasmid containing the entire rat α1→2fucosyltransferase coding sequence in a total volume of 0.5 ml. Progress of the reaction was followed with time by withdrawing 2 μl of the reaction mixture and spotting it on an HPTLC plate. The plate was developed in a solvent system composed of CHCL3:CH3OH:H2O, 60:40:9, containing 0.02% CaCl2. Glycolipid bands were determined by orcinol spray (FIG. 9).

As to `CC(=O)Nc1ccc2c(c1)Cc1ccccc1-2` [AAF, N-2-acetylaminofluorene], in the assay with α1→2FucT, the “α1→2FucT enzyme activity in liver” value was “moderate level”.

Consider lactoneotetraosylceramide [nLcOse4Cer], for which, in assay [1], the “transfer of fucose to acceptor” value is recorded as “No detectable transfer”.

In the case of phosphatidylglycerol, in assay [2], the “transfer to GM1 in the presence of additive, compared with no detergent or phospholipid” value is reported as “Somewhat less transfer”.

For `C[C@H](CCC(=O)NCCC[N+](C)(C)CC(O)CS(=O)(=O)[O-])[C@H]1CC[C@H]2[C@@H]3[C@H](O)C[C@@H]4C[C@H](O)CC[C@]4(C)[C@H]3C[C@H](O)[C@]12C` (stereo partly shown) [CHAPSO], the “transfer to GM1 in the presence of additive, compared with no detergent or phospholipid” value in assay [2] is “Comparable transfer”.

As for II^3NeuAcGg4 [GM1], in assay [1], the “transfer of fucose to acceptor” value was “transfer fucose to GM1”. In assay [2] (two hours at 37° C.), the “transfer of fucose to GM1 by full length enzyme” value is reported as “transfers fucose to GM1 with high efficiency”. The “conversion of GM1 to fucosyl-GM1” value in assay [3] is listed as “almost complete conversion”.
